One series deals with mouse plasma proteins. The arrangement: method as in public assessment report of Otezla (CHMP, 2014). The note with it: 0.25 to 2.5 μg/mL, ref public assessment report of Otezla (CHMP, 2014); cited from earlier work.
The subject of the next series is rat plasma proteins. The arrangement: method as in public assessment report of Otezla (CHMP, 2014). The settings on record: 0.25 to 2.5 μg/mL, ref public assessment report of Otezla (CHMP, 2014); cited from earlier work.
A further series has as its system rabbit plasma proteins. On the set-up: method as in public assessment report of Otezla (CHMP, 2014). The note with it: 0.25 to 2.5 μg/mL, ref public assessment report of Otezla (CHMP, 2014); cited from earlier work.
In the next series the test system is monkey plasma proteins. The arrangement: method as in public assessment report of Otezla (CHMP, 2014). The note with it: 0.25 to 2.5 μg/mL, ref public assessment report of Otezla (CHMP, 2014); cited from earlier work.
In a further series the test system is human plasma proteins. On the set-up: method as in public assessment report of Otezla (CHMP, 2014). The settings on record: 0.25 to 2.5 μg/mL, ref public assessment report of Otezla (CHMP, 2014); cited from earlier work.
The subject of series [1] is human α1-acid glycoprotein (AGP). The series can be described thus: HPLC on chiral AGP column (immobilized protein): retention factors and estimated bound percentage. The class given is binding. The settings on record: for Bound percentage (b%): from ln k extrapolated to zero organic modifier, b%=100×k/(1+k); for retention factor (k): chiral AGP column, 2-propanol modifier. The protocol: In this study, AGP was used as the chiral selector. […]
HPLC columns with immobilized proteins can also be used to estimate the percentage of the drug bound to the protein. […] Extrapolating this relationship to a zero organic modifier approximates physiological conditions. The intercept of the regression lines was used to calculate protein binding percentages based on eq .
LC-UV analysis was conducted on an Agilent 1100 HPLC system that included a quaternary pump, an autosampler, a column compartment, and a DAD detector (Agilent Technologies, Waldbronn, Germany). Data analysis was performed with ChemStation software (version: B04.03-SP2). UV detection was set at 230 nm. Stock solutions were prepared in methanol at a concentration of 1 mg/mL (2.17 mM), and further dilutions were made by using deionized water. Samples were prepared to contain 0.1 mg/mL (0.217 mM) R-APR and 0.2 mg/mL (0.434 mM) S-APR, with each analysis performed using a 5 μL injection volume. […] Chromatographic data were evaluated according to standard calculation methods. The retention factor (k) for each enantiomer was determined using the following equation: k=(tr−t0)/t0 1 where tr denotes the retention time of the target enantiomer and t0 represents the column dead time.
Additionally, the retention factor was used to estimate the percentage of protein-bound analytes according to the following formula: b%=100×k/(1+k) 2 Three parallel measurements were performed for each case.

Series [2] has the same test system. The series can be described thus: Isothermal titration calorimetry of AGP with APR enantiomers. The class given is binding. The settings on record: ITC, aqueous 5% DMSO, 25 °C; for Standard entropy (ΔS) of binding: calculated from ΔG=ΔH−TΔS; for Standard Gibbs free energy (ΔG) of binding: calculated from −RTlnK.
Procedure: The working cell contained 1427.5 μL of AGP solution, which was titrated with 5 μL aliquots of the APR solution from the syringe, up to a total volume of 275 μL. The reference cell was filled with aqueous 5% DMSO. Each injection lasted 10 s, with a 1000 s interval between injections. The stirring speed was maintained at 307 rpm.
The resulting isotherm was next fitted with the nonlinear multiparameter regression method (Origin 7.0 MicroCal) using the One Set of Sites model, which assumes that a receptor (macromolecule) has a single class of multiple independent binding sites for a ligand. In this model, each site has the same affinity and thermodynamics for the ligand, and the binding of one ligand molecule to a site is independent of the binding events at other sites. […] The standard Gibbs free energy of binding ΔG and standard entropy of binding ΔS can be next calculated using the basic thermodynamic relationship ΔG=ΔH−TΔS=−RTln⁡K where T is temperature and R is the gas constant.
The test system is the same in series [3]. The series can be described thus: Ultracentrifugation, free APR in supernatant by HPLC-UV. The note with it: isolated human α1-acid glycoprotein (AGP) in PBS, 5 μM APR, 5-15 μM AGP, PBS pH 7.4, 20 °C, 1:1 stoichiometry, K in L mol^–1, read-out: binding (stability) constant log K (converted). The protocol:
The interaction of S-APR and R-APR with AGP was also examined with ultracentrifugation, where increasing protein levels (final concentrations: 0, 5, 10, and 15 μM) were added to a standard amount of the ligand (5 μM) in PBS (pH 7.4). These samples (600 μL) were centrifuged for 16 h at 170,000g and 20 °C employing an Optima MAX-XP ultracentrifuge (Beckman Coulter, Brea, CA, USA). Using these experimental conditions, the protein is slowly sedimented without the disruption of ligand–protein interactions. − , Thereafter, the unbound free fraction of APR was directly quantified in the protein-free supernatants by the HPLC-UV method (see the next paragraph). Binding (association) constants (K; unit: L mol^–1) of APR–AGP complexes were calculated assuming a 1:1 stoichiometry of complex formation: , K=([APR−AGP])/([APR]×[AGP]) 3 where [APR] is the molar concentration of the unbound free ligand, [AGP] is the molar concentration of the unbound free protein, and [APR–AGP] indicates the molar concentration of the ligand–protein complex.
The APR concentration after centrifugation was measured by a validated HPLC-UV method using an XTERRA RP18 column (5 μm, 4.6 × 100 mm), maintained at 40 °C. Isocratic elution was applied using acetonitrile and water containing 0.5% formic acid (60:40, v/v) as the mobile phase. […] The concentration was determined by using the external standard method. […]

Series [4] has as its system human serum albumin (HSA). The arrangement: method as in number not printed (authors' recent work, Dombi et al., 2023). The settings on record: binding to HSA; ref number not printed (authors' recent work, Dombi et al., 2023); cited from earlier work.
The mark [5] stands for this setting: 25 °C, sodium phosphate buffer 10 mM pH 7.0, 95% in eluent.
Where [6] appears, read: ammonium acetate buffer 10 mM pH 7.0, 85% in eluent.
Setting [7] is: ammonium acetate buffer 10 mM pH 7.0, 90% in eluent.
Setting [8] is: ammonium acetate buffer 10 mM pH 7.0, 92.5% in eluent.
The mark [9] stands for this setting: ammonium acetate buffer 10 mM pH 7.0, 95% in eluent.
The mark [10] stands for this setting: ammonium bicarbonate buffer 10 mM pH 7.0, 85% in eluent.
[11] abbreviates: ammonium bicarbonate buffer 10 mM pH 7.0, 90% in eluent.
The mark [12] stands for this setting: ammonium bicarbonate buffer 10 mM pH 7.0, 92.5% in eluent.
Where [13] appears, read: ammonium bicarbonate buffer 10 mM pH 7.0, 95% in eluent.
Setting [14] is: sodium phosphate buffer 10 mM pH 7.0, 85% in eluent.
Setting [15] is: sodium phosphate buffer 10 mM pH 7.0, 90% in eluent.
Setting [16] is: sodium phosphate buffer 10 mM pH 7.0, 92.5% in eluent.

Take `CCOc1cc([C@@H](CS(C)(=O)=O)N2C(=O)c3cccc(NC(C)=O)c3C2=O)ccc1OC` [APR, Apremilast]: the “average percentage bound to plasma proteins” value with mouse plasma proteins is 88.6%; in the series on rat plasma proteins it was 90.6%; in the series on rabbit plasma proteins, 80.9%; in the series on monkey plasma proteins it was 84.3%; in the series with human plasma proteins, 68.3%.

On to `CCOc1cc([C@H](CS(C)(=O)=O)N2C(=O)c3cccc(NC(C)=O)c3C2=O)ccc1OC` [R-APR, apremilast], for which the “Bound percentage (b%)” value in series [1] (ammonium acetate buffer) is given as 98.37%; in series [1] (ammonium bicarbonate buffer), 99.19%; in series [1] (sodium phosphate buffer) it was 99.31%. Besides, the “retention factor (k)” value in series [1] (setting [5]) is reported as 3.99 ± 0.02; in series [1] (setting [6]), 0.33 ± 0.01; in [1] (setting [7]), 0.90 ± 0.01; in series [1] (setting [8]) it was 1.51 ± 0.03; in [1] (setting [9]) it was 3.29 ± 0.02; in [1] (setting [10]) it was 0.32 ± 0.01. Further, the “retention factor (k)” value in [1] (setting [11]) was 0.94 ± 0.01; in series [1] (setting [12]), 1.62 ± 0.01; in series [1] (setting [13]), 3.59 ± 0.02; in series [1] (setting [14]) it was 0.34 ± 0.01; in [1] (setting [15]) it was 0.98 ± 0.01; in series [1] (setting [16]) it was 1.69 ± 0.01. Besides, the “Standard enthalpy (ΔH) of binding” value in series [2] is recorded as “–3.40 ± 0.26 kcal mol^–1”. Moreover, the “Standard entropy (ΔS) of binding” value in [2] was 13.7 ± 1.5 cal K^–1 mol^–1. For the same compound, in series [2], the “Standard Gibbs free energy (ΔG) of binding” value is reported as “–7.48 ± 0.18 kcal mol^–1”. Further, the Kd at 16 h, 5 µM in series [3] is 2290 nM. Besides, the “Stability constant (log K), HSA” value in [4] is on record as 3.81 ± 0.05.

For `CCOc1cc([C@@H](CS(C)(=O)=O)N2C(=O)c3cccc(NC(C)=O)c3C2=O)ccc1OC` [S-APR, apremilast], the results for the “Bound percentage (b%)” value in [1] (ammonium acetate buffer), in series [1] (ammonium bicarbonate buffer) and in series [1] (sodium phosphate buffer) were 99.01%, 99.54% and 99.63%, respectively. The “retention factor (k)” value in series [1] (setting [5]) is 5.05 ± 0.03; in [1] (setting [6]), 0.33 ± 0.01; in series [1] (setting [7]), 0.90 ± 0.01; in [1] (setting [8]), 1.72 ± 0.03; in [1] (setting [9]), 4.07 ± 0.02; in [1] (setting [10]), 0.32 ± 0.01. Further, the “retention factor (k)” value was 0.94 ± 0.01 in [1] (setting [11]); 1.89 ± 0.01 in series [1] (setting [12]); 4.44 ± 0.02 in series [1] (setting [13]); 0.34 ± 0.01 in series [1] (setting [14]); 0.98 ± 0.01 in series [1] (setting [15]); 2.00 ± 0.01 in series [1] (setting [16]). Besides, the “Standard enthalpy (ΔH) of binding” value in [2] is given as “–4.80 ± 0.27 kcal mol^–1”. In series [2], the “Standard entropy (ΔS) of binding” value is listed as 9.3 ± 1.3 cal K^–1 mol^–1. The “Standard Gibbs free energy (ΔG) of binding” value in series [2] is on record as “–7.57 ± 0.12 kcal mol^–1”. For the same compound, the Kd at 16 h, 5 µM in series [3] was 1700 nM. Moreover, in series [4], the “Stability constant (log K), HSA” value is on record as 4.02 ± 0.08.

Values taken from publication PMC12750218 (ACS Omega, 2025).
